A word on the GI50: it is the concentration that inhibits growth by half.

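Values below derive from 48-hour exposures of cells grown in 96-well plates, with endpoints linearly interpolated between the two concentrations bracketing the appropriate inhibition level. GI50 = concentration required for 50% inhibition of growth.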 The source made the active and inactive calls. Cut-off read from the data, not from the text of the source: active = GI50 up to about 1.1 µM and inactive = higher. Where only a bound is given, the exact number is not on record here.

Test systems include ACHN; DMS-114; HCT-15; HOP-18; HOP-92; LXFL 529; M14; M19-MEL; MOLT-4; Malme-3M; NCI-H226; RXF 393; SNB-78; TK-10; UACC-62.
Holding throughout (assay): DTP human tumour cell line panel, 48 h

Consider `CCCCNC(=O)C1C(=O)N(CCCC)C(=O)/C1=N\N` (stereo not given), for which the GI50 in the assay on ACHN is > 100 µM (inactive); with DMS-114, > 100 µM (inactive); in the assay with HCT-15 it was over 100 µM; with HOP-18, > 100 µM (inactive); in the assay on HOP-92, > 100 µM (inactive); in the assay on LXFL 529, > 100 µM (inactive). In addition, the GI50 in the assay on M14, in the assay with M19-MEL, with MOLT-4, in the assay on Malme-3M, in the assay on NCI-H226 and in the assay on RXF 393 was > 100 µM (inactive) in each case. Further, the GI50 in the assay with SNB-78, with TK-10 and in the assay on UACC-62 was > 100 µM (inactive) throughout.

(Values after ChEMBL document CHEMBL1201862, “PubChem BioAssay data set” (2004).)
